row,melting point [°C],SMILES
1,237,CC(N)C(C)n1ncn(-c2ccc(N3CCN(c4ccc(O)cc4)CC3)cc2)c1=O (stereo not given)
2,160 to 162,CN(C)c1cccc2c(S(=O)(=O)Nc3ccc(Cl)cn3)cccc12
3,93,CCN(C)C(=O)c1cc(-c2ccccc2)c2sccc2c1
4,233 to 235,NS(=O)(=O)c1cc2[nH]c(C(F)F)nc2cc1Cl
5,103 to 107,Cc1cc(OCCN2CCOCC2)nn1-c1ccc2ccc(O)cc2c1
6,172 to 175,ON=C1CCC2(CC1)OC(c1ccccc1)c1ccccc12 (stereo not given)
7,40 to 42,C[C@H](Nc1c(-c2c(F)cc(OCCCN(C)C)cc2F)c(Br)nc2ncnn12)C(F)(F)F
8,60 to 62,COC(=O)COCc1cc(Br)ccc1C(=O)OC
9,174,CCN(CC)CCN1C(=O)c2cc(N)cc3cc([N+](=O)[O-])cc(c23)C1=O
10,211 to 213,Cc1ccc(C2c3[nH]c4ccccc4c3CCN2C(=O)C=Cc2cc([N+](=O)[O-])ccc2Cl)cc1 (stereo not given)
11,197 to 198,N#CCCNC(=O)c1cccc(-c2ccc3c(c2)N(CCc2cccc(C(F)(F)F)c2)CC3)c1
12,234 to 236,CCCn1c([N+](=O)[O-])cnc1-c1cnc(N)s1
13,97 to 99,CC(C)(C)OC(=O)NCCn1cc(C#N)c(-c2cccc(F)c2)c1Cl
14,152 to 154,Cn1cc(C2OC(=O)NC2=O)c2ccccc21 (stereo not given)
15,173,CC1(C)OC(=O)C(c2cccc(F)c2)=C1c1ccc(S(C)(=O)=O)cc1
16,127 to 129,O=C(O)CC1Cc2ccc(OCc3ccccc3)cc2C1 (stereo not given)
17,166 to 168,COCc1nnc(-c2cccnc2)n1-c1c(C)c(Cl)cc2nc(OC)c(OC)nc12
18,138 to 140,COc1cc(N)c(Cl)cc1C(=O)NCC1CCN(CCCCCNC(=O)c2ccccc2)CC1
19,125 to 126,CCc1cn(C2CC(O)C(CN=[N+]=[N-])O2)c(=O)nc1NC(=O)c1ccccc1 (stereo not given)
20,82 to 84,Cc1cc(C)c(Cc2nc(C)nc(Cl)c2C)c(C)c1
21,100 to 105,COC(=O)c1ccc(=O)n(-c2ccccc2)c1
22,134 to 137,CC(C)CCN1C(=O)C2(COc3cc4c(cc32)OCCO4)c2ccccc21 (stereo not given)
23,233 to 236,COc1ccc2nc(COc3ccc(CC(C(N)=O)S(C)(=O)=O)cc3)n(C)c2c1 (stereo not given)

row,melting point [°C],SMILES
1,198,CCOC(=O)c1cc2c(nc(C)n2C)c2c1CCC(OC)(c1ccccc1C)O2 (stereo not given)
2,230 to 233,OCc1nc2cc(Br)cnc2[nH]1
3,127 to 129,C=Cc1cc([C@@H](C)NC(=O)C=Cc2ccc(C(C)(C)C)cc2)cc(F)c1NS(C)(=O)=O
4,88 to 90,O=C(NCC1Cc2ccc3c(c2O1)CCCC3)OCc1ccccc1 (stereo not given)
5,201 to 204,Nc1nc2cc(-c3ccccc3)ccc2c2c1ncn2CCCN1CCCC1=O
6,80 to 85,CC(O)c1ccc(Oc2ccc(NC(=O)Nc3cc(C(C)(C)C)on3)cc2)cc1 (stereo not given)
7,65 to 69,Cc1cc(SC(C)CC(Sc2cc(C)c(O)c(C(C)(C)C)c2)Sc2cc(C)c(O)c(C(C)(C)C)c2)cc(C(C)(C)C)c1O (stereo not given)
8,104 to 105,COc1cccc(CC(NC(=O)CCl)c2ccccc2)c1 (stereo not given)
9,80,CCCCn1nnc2cc(C(O)c3ccsc3)ccc21 (stereo not given)
10,194 to 196,CS(=O)(=O)c1ccc(-c2cc(-n3ccc(C(F)(F)F)n3)c3ccccc3n2)cc1
11,160 to 164,O=C(O)c1cc[nH]c1Sc1ccc(Cl)cc1Cl
12,267 to 290,CC(=O)OCC(=O)Nc1cc(-c2ccncc2)c[nH]c1=O
13,161,COc1c(C)cc2[nH]c(S(=O)Cc3nccc(C)c3C)nc2c1C (stereo not given)
14,272 to 273,CC(C)(C)c1ccc(C(=O)Nc2cn3nc(NC4CCCC4)ccc3n2)cc1
15,191,CN1C2CCCC1CN(c1ccc(C#Cc3ccc(N)cc3)cc1)C2
16,209 to 210,O=Cc1cc2ccc3c4ccccc4ccc3c2s1
17,174 to 175,CCOC(=O)c1[nH]c2cc(Cl)cc(Cl)c2c1N(CC(=O)c1ccccc1)Cc1ccccc1
18,94 to 95,COC(=O)c1ccc2sccc2c1O
19,91 to 92,Cc1oc(-c2ccco2)nc1COc1ccc(CO)cc1
20,185 to 186,COc1ccc(C2=NN(C3CCN(C(=O)N4CCOCC4)CC3)C(=O)[C@H]3CC=CC[C@@H]23)cc1Cl (relative stereo)
21,123 to 124,COC(=NS(=O)(=O)c1nc(-c2ccccc2)ns1)C(C)C
22,184 to 187,Cc1ccc2c(c1)C(OC(C)C)=C(C(=O)O)S2=O (stereo not given)

# Second part, the compound before the results:
row,SMILES,melting point [°C]
1,COc1ccc2[nH]cc([C@H]3CC[C@@H](N4CCN(c5cccc6[nH]ccc56)CC4)CC3)c2c1,105 to 108
2,CNc1cc(-c2c(-c3ccc(F)cc3)ccn2C2CCNCC2)ccn1,165 to 167
3,CC(C)c1ccc(N(Cc2cnn(C)c2)C(=O)C2CCCc3c(O)cccc32)cc1 (stereo not given),215
4,COc1cc(OC)c2c(=O)[nH]c(-c3ccc(CN4CCOCC4)cc3)nc2c1,206 to 208
5,COC(=O)[C@H](Cc1ccc(NC(=O)c2c(Cl)cccc2Cl)cc1)NC(=S)C1(CCCSC)CCC1,184 to 186
6,CC(C)C(C(=O)O)c1ccc(N=[N+]=[N-])cc1 (stereo not given),95 to 97
7,COc1c(F)cc(-c2cncc(OC3SCC(O)C(O)C3O)c2)cc1F (stereo not given),203
8,N#Cc1c(N2CCN(C(=O)c3ccco3)CC2)c2cc(Cl)cnc2n(CC(=O)c2ccccc2)c1=O,328
9,CC(=O)Oc1ccccc1C(=O)Nc1cc(Cl)c(OC(C)=O)c(Cl)c1,154 to 156
10,COCCN(CCOC)c1ccc(NC(=O)c2ccc(C)c(Nc3nccc(-c4cccnc4)n3)c2)cc1C(F)(F)F,156 to 157
11,COc1ccc2c(Nc3ccc4cn[nH]c4c3)c(C#N)cnc2c1,> 250
12,C[Si](C)(C)C#Cc1cccc2ccccc12,41 to 43
13,COc1ccc(-c2nn(C3CCC3)c3c(C(F)(F)F)cccc23)c(OC)c1,109 to 110
14,Nc1sc(-c2ccco2)c(CN(C2CCCCC2)C2CCCCC2)c1C(=O)c1ccc(Cl)cc1,158 to 160
15,CC1(C)C(=O)C(C)(C)c2cc(N)c(N)cc21,179 to 180
16,CC#CC(C)(C)NC(=O)C(CC)Oc1ccc2ncc(C#N)cc2c1 (stereo not given),116 to 118
17,O=C1C=CN2c3ccccc3CCC2C1 (stereo not given),135 to 137
18,CCOC(=O)CCc1ccc(OCCN2CCCC2=O)cc1O,112 to 115
19,Cc1cc(=O)[nH]c2ccc(OCCCN3CCC(NC(=O)c4ccccc4)CC3)cc12,243 to 245
20,NS(=O)(=O)c1cc(CCNC(=O)C=Cc2cccs2)ccc1OCC1CCCCO1 (stereo not given),106
21,COC(=O)c1c(C(=O)OC)c(-c2ccc(OC)c(OC)c2)c2sccc2c1OC,118
22,CCCCCCCCC(Cc1cccnc1)(C(=O)O)S(=O)(=O)c1ccc(OC)cc1 (stereo not given),159
23,O=c1[nH]c2cc(Cl)cc(Cl)c2c(=O)n1-c1ccccc1,314 to 319
24,O=C(CNC(=O)CN1CCCC1=O)NCC(=O)Nc1ccncc1,250 to 253
25,Cc1oc(-c2ccccc2)nc1COc1ccc(CSc2nc(CCC(=O)O)n[nH]2)cc1,170 to 171
26,COc1cc(CN2C(=O)C3(COc4cc5c(cc43)OCCO5)c3ccccc32)ccc1F (stereo not given),161 to 163
27,CCCCC(CC)CNC(=O)c1cc(C(C)(C)C)c(O)c(C(C)(C)C)c1 (stereo not given),136 to 140
28,CC(C)(C)c1ccc(C(=O)NNS(=O)(=O)c2ccccc2)cc1,197 to 199

row,SMILES,melting point [°C]
1,COc1ccc(Sc2ccc([N+](=O)[O-])cc2[N+](=O)[O-])c(N)c1,169 to 172
2,CC(C)(O)c1cc(Br)ccc1N,62 to 63
3,CN(C)CCNC(=O)c1ccc(-c2cnc3c(c2)N(C(=O)c2ccccc2)CCN3)cc1,145 to 147
4,COc1ccc(N2CCN(Cc3coc4ccccc34)CC2)cc1,110 to 112
5,CS(=O)(=O)c1ccc(C(CC2CCCC2)C(=O)O)cc1F (stereo not given),115 to 117
6,OC1CC2c3ccccc3CCN2C2CCCCC12 (stereo not given),140 to 142
7,CN(C)CCC(=O)Nc1cccc(NC(=O)Nc2ccc(N(CCCl)CCCl)cc2)c1,88 to 90
8,Cn1ncc(C(=O)N2CCC2)c1C(=O)Nc1ccn2nc(-c3ccncc3)nc2c1,> 250
9,CCCCCCCCCCCCCCCCNC(=O)C=CC(=O)O,46 to 49
10,N#Cc1ccc(OCCCCC(=O)O)cc1,160
11,O=C(NC1CCCC1)c1cccc(-c2ccnc3c(C(=O)c4cccs4)cnn23)c1,207 to 209
12,Cc1cccc(C(=O)Nc2c[nH]nc2C(=O)NCCC#N)n1,225 to 227
13,O=C(O)c1ccc(-c2nc(NCc3ccc4c(c3)OCO4)c3cc([N+](=O)[O-])sc3n2)cc1,172
14,CCCn1cc(C(=O)OCC)c(C(=O)OCC)c1N1C(=O)c2ccccc2C1=O,100 to 101
15,CC(=O)n1ccc(O)n1,191
16,CCN(CCCC1CCN(CC(=O)N2c3ccccc3C(=O)Nc3cccnc32)CC1)C(=O)C(C)(C)CC,136 to 138
17,O=S(=O)(Nc1cccc(CCOCc2ccc(-c3ccc(Cl)cc3)cc2)c1)C(F)(F)F,69 to 70
18,Cc1ccc([N+](=O)[O-])cc1Nc1cccc(Br)c1,114 to 116
19,CCNc1nc(NC)cc(NS(=O)(=O)c2ccc(N)cc2)n1,261 to 263
20,CS(=O)(=O)N1CCC(C=O)CC1,97
21,c1cc(C2=NOCCS2)ccn1,80 to 82
22,CCCc1ncc(CN2C(=O)c3ccccc3C2=O)s1,72
23,COC(=O)c1ccccc1N(C)C(=O)CBr,80 to 82
24,COCCCNC(=O)c1ccc(-c2cc(-c3c(-c4cccc(C)n4)nc4ccccn34)ccn2)cc1,165
25,CSC(Oc1cc(C)c(Br)c(C)c1)C(=O)NC(C)(C)C (stereo not given),123 to 125
26,Cn1c(Cn2ccnc2)nc2ccccc21,151 to 152
27,COC(=O)c1cc2c(Nc3ncccn3)cccc2s1,206 to 208
